Source: patent publication US20250326708A1, “LONG-ACTING SPLEEN-TARGETING CATIONIC LIPID COMPOUND COMPRISING BENZENE RING STRUCTURE, COMPOSITION COMPRISING SAME, AND USE THEREOF” (Beijing Youcarekechuang Pharmaceutical Technology Co., Ltd., priority 2024, published 2025)
Where “and” joins values, the source holds several entries; their conditions need not be identical. Identical values can stand only once.

Key:
[1] = Particle size and polydispersity index (PDI) of lipid nanoparticles, dynamic light scattering; assay type: physicochemical; conditions: LNP preparation with the named cationic lipid; 90° scattering angle, 25° C
Description: (§1) The cationic lipids listed in Table 2 were each mixed with DSPC (AVT (Shanghai) Pharmaceutical Technology Co., Ltd.), cholesterol (AVT (Shanghai) Pharmaceutical Technology Co., Ltd.), and DMG-PEG2000 in a molar ratio of 49:10:39.5:1.5 and dissolved in ethanol to prepare ethanol lipid solutions. Using the ethanol injection method, the ethanol lipid solutions were quickly added to a citrate buffer (pH between 4 and 5), and vortexed for 30 seconds for later use. eGFP-mRNA (purchased from Shanghai BioHub Biotechnology Co., Ltd.), Fluc-mRNA (purchased from Shanghai BioHub Biotechnology Co., Ltd.), or Cy5 fluorescently labeled Leqvio (purchased from Sangon Biotech (Shanghai) Co., Ltd.) was diluted in a citrate buffer (pH between 4 and 5) to obtain an mRNA aqueous solution. A certain volume of the lipid solution and the mRNA aqueous solution were mixed to prepare liposomes at a total lipid-to-mRNA weight ratio of 15:1. The mixtures were sonicated at 25° C. for 15 minutes (ultrasonic frequency: 40 kHz, ultrasonic power: 800 W). The resulting liposomes were diluted 10-fold with PBS, followed by ultrafiltration using a 300 kDa ultrafiltration tube to remove ethanol. After adjusting the volume with PBS, LNP preparations encapsulating eGFP-mRNA or Fluc-mRNA were obtained, using cationic lipids, DSPC, cholesterol, and DMG-PEG2000 at a molar ratio of 49:10:39.5:1.5.
The particle size and polydispersity index (PDI) were measured using dynamic light scattering with a Malvern laser diffraction particle size analyzer.
10 μL of liposome solution was diluted to 1 mL with RNase-free deionized water and added to the sample cell. Each sample was measured three times. The measurement conditions were as follows: 90° scattering angle, 25° C.

293T cells [2] = assay: Fluorescence detection of Fluc-mRNA (transfection efficiency) of LNP preparations; assay type: cell-based; conditions: Fluc-mRNA LNP; for Cellular transfection efficiency, times that of HHMA: vs HHMA; for Cellular transfection efficiency, times that of I-1: vs I-1; for Cellular transfection efficiency, times that of Lipofectamine 3000: vs Lipofectamine 3000; for Cellular transfection efficiency, times that of MC3: vs MC3; for Cellular transfection efficiency, times that of SM-102: vs SM-102; for Cellular transfection efficiency, times that of YK-501: vs YK-501; for Cellular transfection efficiency, times that of YK-506: vs YK-506; for Cellular transfection efficiency, times that of compound 7: vs compound 7
Method: (§2) Cell recovery and passage: 293T cells were recovered and cultured in culture dishes. The cells were passaged until the required number of cells was obtained.
(§3) Seeding plates: The cells in culture dishes were digested and counted, then seeded in a 96-well plate at 10,000 cells per well and seeded in a 12-well plate at 150,000 cells per well. The cells were cultured overnight until cell adhesion.
as §1
(§4) Cell recovery and passage: The method was the same as described in Example 3.
(§5) Seeding plates: The method was the same as described in Example 3.
LNP preparations containing 0.3 μg of Fluc-mRNA (with the vector components of the LNP preparations of cationic lipids, DSPC, cholesterol, and DMG-PEG2000 in a molar ratio of 49:10:39.5:1.5, where the cationic lipids are those listed in Table 1) were added to the cell culture medium in a 96-well plate. After 24 hours of continued culture, the corresponding reagents were added according to the instructions in the Gaussia Luciferase Assay Kit. Fluorescence intensity in each well was detected using the IVIS fluorescence detection system. The transfection efficiency of LNP preparations prepared with a series of cationic lipid compounds designed in the present disclosure, as well as cationic lipids from the prior art, including SM-102, HHMA, MC3, compound 7, and I-1, is shown in Table 4.

293T cells [3] = assay: Cell viability assay (CCK-8) with LNP preparations of Fluc-mRNA; assay type: cell-based; conditions: for Cell viability: LNP with 1.5 μg Fluc-mRNA, 24 hours, CCK-8
Method: as §2, §3, §1, §4, §5
LNP preparations containing 1.5 μg of Fluc-mRNA (with the vector components of the LNP preparations of cationic lipids, DSPC, cholesterol, and DMG-PEG2000 in a molar ratio of 49:10:39.5:1.5, where the cationic lipids are those listed in Table 1) were added to the cell culture medium in a 96-well plate. After 24 hours of continued culture, 10 μL of CCK-8 solution was added to each well, and the culture plate was incubated in an incubator for 1 hour.

female BALB/C mice [4] = assay: Expression of delivered mRNA in mice in vivo (IVIS in vivo imaging); conditions: 10 μg Fluc-mRNA via tail vein
Method: LNP preparations containing 10 μg of Fluc-mRNA were injected via the tail vein into female BALB/C mice (4 to 6 weeks old, weighing 17 to 19 g). At specified time points after administration (6 h, 24 h, 48 h, and 7 d), the mice were intraperitoneally injected with fluorescent imaging substrates and allowed to move freely for 5 minutes. The average radiation intensity (corresponding to fluorescence intensity) of proteins expressed by the mRNA delivered by the LNP preparations in the mice in vivo was then detected using the IVIS Spectrum small-animal in vivo imaging system.

female BALB/C mice [5] = assay: Expression of delivered mRNA in different organs of mice (organ imaging); assay type: in vivo; conditions: for Expression level of mRNA in the spleen, times that of SM-102 / Expression level of mRNA in the spleen, times that of YK-501 / Expression level of mRNA in the spleen, times that of YK-506: 6 h; for Expression level of mRNA in the spleen, times that of SM-102: vs SM-102; for Expression level of mRNA in the spleen, times that of YK-501: vs YK-501; for Expression level of mRNA in the spleen, times that of YK-506: vs YK-506
Method: LNP preparations containing 5 μg of Fluc-mRNA were subcutaneously injected into female BALB/C mice (4 to 6 weeks old, weighing 17 to 19 g). At specified time points after administration (6 h), the mice were intraperitoneally injected with fluorescent imaging substrates and allowed to move freely for 5 minutes. The average radiation intensity (corresponding to fluorescence intensity) of proteins expressed by the mRNA delivered by the LNP preparations in the mice in vivo was then detected using the IVIS Spectrum small-animal in vivo imaging system. After sampling, the mice were killed by cervical dislocation and dissected, and the internal organs: heart, liver, spleen, lung, kidney, and lymph of mice were accurately isolated. The average radiation intensity (corresponding to fluorescence intensity) of proteins expressed by the mRNA delivered by the LNP preparations in various organs of mice was then detected using the IVIS Spectrum small-animal in vivo imaging system.

[6] = 6 hours after 5 μg Fluc-mRNA subcutaneously

| PDI [1] | Particle size [1] | Structure (SMILES) | Cellular transfection efficiency, times that of HHMA (293T cells [2]) | Cellular transfection efficiency, times that of I-1 (293T cells [2]) | Cellular transfection efficiency, times that of Lipofectamine 3000 (293T cells [2]) | Cellular transfection efficiency, times that of MC3 (293T cells [2]) | Cellular transfection efficiency, times that of SM-102 (293T cells [2]) | Cellular transfection efficiency, times that of YK-501 (293T cells [2]) | Cellular transfection efficiency, times that of YK-506 (293T cells [2]) | Cellular transfection efficiency, times that of compound 7 (293T cells [2]) | Cell viability (293T cells [3]) | Average radiation intensity, in vivo imaging (female BALB/C mice [4]; 6 h) | Average radiation intensity, in vivo imaging (female BALB/C mice [4]; 24 h) | Average radiation intensity, in vivo imaging (female BALB/C mice [4]; 48 h) | Average radiation intensity, in vivo imaging (female BALB/C mice [4]; 7 d) | Average radiation intensity of mouse organs: Heart (female BALB/C mice [5]; [6]) | Average radiation intensity of mouse organs: Kidney (female BALB/C mice [5]; [6]) | Average radiation intensity of mouse organs: Lung (female BALB/C mice [5]; [6]) | Average radiation intensity of mouse organs: Lymph (female BALB/C mice [5]; [6]) | Average radiation intensity of mouse organs: Spleen (female BALB/C mice [5]; [6]) | further results |
| --- | --- | --- | --- | --- | --- | --- | --- | --- | --- | --- | --- | --- | --- | --- | --- | --- | --- | --- | --- | --- | --- |
| 11.9% | 132 nm | CCCCCCCCCCOC(=O)CCCN(CCCCCC(=O)OCCC(CCCCCC)CCCCCC)CCNC(CO)(CO)CCc1ccc(CCCCCCCC)cc1 [YK-909, 3-hexylnonyl 6-((4-(decyloxy)-4-oxobutyl) (2-((1-hydroxy-2-(hydroxymethyl)-4-(4-octylphenyl)butan-2-yl)amino)ethyl)amino) hexanoate] | 6.71 times | 33.44 times | 8.05 times | 71.44 times | 4.75 times | 146.62 times | 10.36 times | 26.33 times | 92% | 12924543 | 1322432 | 576433 | 87433 | 0 | 0 | 0 | 0 | 204435 | Cellular transfection efficiency, times that of YK-906 (293T cells [2]; vs YK-906): 246 times and 246.15 times; Cell viability higher than that of YK-906 (293T cells [3]; difference vs YK-906): 29%; Average radiation intensity of mouse organs: Liver (female BALB/C mice [5]; [6]): 9131; Expression level of mRNA in the spleen, times that of SM-102 (female BALB/C mice [5]): 8.00 times; Expression level of mRNA in the spleen, times that of YK-501 (female BALB/C mice [5]): 14.37 times; Expression level of mRNA in the spleen, times that of YK-506 (female BALB/C mice [5]): 2.87 times |
| 9.5% | 123 nm | CCCCCCCCCCC(CCCCCCCC)COC(=O)CCCCCNC(CO)(CO)CCc1ccc(CCCCCCCC)cc1 (stereo not shown) [YK-912, 2-octyldodecyl 6-((1-hydroxy-2-(hydroxymethyl)-4-(4-octylphenyl)butan-2-yl)amino) hexanoate] | 5.65 times | 28.16 times | 6.77 times | 60.16 times | 4.00 times | 123.46 times | 8.73 times | 22.17 times | 87% | 7543664 | 932533 | 354363 | 56756 | 0 | 0 | 0 | 0 | 175366 | Cellular transfection efficiency, times that of YK-901 (293T cells [2]; vs YK-901): 131 times and 131.47 times; Cellular transfection efficiency, times that of YK-902 (293T cells [2]; vs YK-902): 18.35 times; Cellular transfection efficiency, times that of YK-903 (293T cells [2]; vs YK-903): 228 times and 228.30 times; Cellular transfection efficiency, times that of YK-904 (293T cells [2]; vs YK-904): 45.65 times; Cellular transfection efficiency, times that of YK-905 (293T cells [2]; vs YK-905): 78.83 times; Cellular transfection efficiency, times that of YK-911 (293T cells [2]; vs YK-911): 4.39 times; Cell viability higher than that of YK-901 (293T cells [3]; difference vs YK-901): 29%; Cell viability higher than that of YK-902 (293T cells [3]; difference vs YK-902): 51%; Cell viability higher than that of YK-903 (293T cells [3]; difference vs YK-903): 40%; Cell viability higher than that of YK-904 (293T cells [3]; difference vs YK-904): 35%; Cell viability higher than that of YK-905 (293T cells [3]; difference vs YK-905): 36%; Cell viability higher than that of YK-911 (293T cells [3]; difference vs YK-911): 25%; Expression level of mRNA in the spleen, times that of SM-102 (female BALB/C mice [5]): 6.86 times; Expression level of mRNA in the spleen, times that of YK-501 (female BALB/C mice [5]): 12.33 times; Expression level of mRNA in the spleen, times that of YK-506 (female BALB/C mice [5]): 2.46 times |
